Assay results taken from patent US8674110B2, “Pyridylacetylenes for use as radiotracers and imaging agents” (Novartis AG, priority 2003, dated 2014).
“And” between values parts separate entries of the source, which are not always exact repeats. Equal entries are not always repeated.

What was measured:
human mGlu5 receptor = target: T1, human mGlu5 receptor (Homo sapiens, UniProt P41594); assay: Ki/IC50 determination (binding assay), radioligand displacement
T1 construct: expressed in transfected cells
T1 sequence (P41594 21-1180 isoform P41594-2 limits assumed): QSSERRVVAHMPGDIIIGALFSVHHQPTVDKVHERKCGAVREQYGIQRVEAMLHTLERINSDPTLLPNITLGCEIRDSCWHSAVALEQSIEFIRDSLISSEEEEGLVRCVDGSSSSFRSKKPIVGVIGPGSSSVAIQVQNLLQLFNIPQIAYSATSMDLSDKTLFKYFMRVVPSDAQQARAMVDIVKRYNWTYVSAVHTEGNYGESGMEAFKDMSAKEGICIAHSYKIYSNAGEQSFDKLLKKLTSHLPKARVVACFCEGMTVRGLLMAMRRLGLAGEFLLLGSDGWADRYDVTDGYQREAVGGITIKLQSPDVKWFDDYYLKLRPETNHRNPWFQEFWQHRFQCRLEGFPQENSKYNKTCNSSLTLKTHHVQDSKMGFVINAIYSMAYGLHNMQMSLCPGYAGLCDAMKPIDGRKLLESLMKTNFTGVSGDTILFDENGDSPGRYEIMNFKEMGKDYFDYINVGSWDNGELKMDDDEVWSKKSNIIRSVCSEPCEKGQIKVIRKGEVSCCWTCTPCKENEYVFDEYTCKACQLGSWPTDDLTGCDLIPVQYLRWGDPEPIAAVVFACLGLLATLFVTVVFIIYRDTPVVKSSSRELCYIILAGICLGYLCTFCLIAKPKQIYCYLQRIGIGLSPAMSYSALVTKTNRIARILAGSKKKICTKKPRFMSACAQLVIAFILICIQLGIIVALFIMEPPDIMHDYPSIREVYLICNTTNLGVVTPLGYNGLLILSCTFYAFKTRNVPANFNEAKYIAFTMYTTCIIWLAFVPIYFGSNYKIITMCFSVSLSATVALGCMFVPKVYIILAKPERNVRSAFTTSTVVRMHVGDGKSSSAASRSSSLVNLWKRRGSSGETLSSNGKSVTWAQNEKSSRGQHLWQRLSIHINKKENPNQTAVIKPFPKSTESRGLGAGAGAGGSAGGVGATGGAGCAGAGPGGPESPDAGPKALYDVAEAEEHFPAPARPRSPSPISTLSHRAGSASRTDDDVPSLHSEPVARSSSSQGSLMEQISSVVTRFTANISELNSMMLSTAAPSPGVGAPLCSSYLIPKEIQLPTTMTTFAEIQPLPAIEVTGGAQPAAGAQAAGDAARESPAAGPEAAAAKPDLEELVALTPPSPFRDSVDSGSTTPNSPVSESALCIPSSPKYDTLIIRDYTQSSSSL
Description: In vitro, the affinity for the mGlu5 receptor is determined using a radioligand displacement technique as described by Gasparini et al, Biorg. Med. Chem. Lett. 2002, 12, 407-409.

mGlu5 receptors = target: T2, mGlu5 receptors (Rattus norvegicus, UniProt P31424); assay: Organ and brain structure distribution (biodistribution) with and without blockade; type: in vivo, Sprague-Dawley rats; details: 30 min post-injection, individual values
T2 construct: from tissue; host or cells: rat brain regions and organs (in vivo tracer distribution)
T2 sequence (P31424 21-1203): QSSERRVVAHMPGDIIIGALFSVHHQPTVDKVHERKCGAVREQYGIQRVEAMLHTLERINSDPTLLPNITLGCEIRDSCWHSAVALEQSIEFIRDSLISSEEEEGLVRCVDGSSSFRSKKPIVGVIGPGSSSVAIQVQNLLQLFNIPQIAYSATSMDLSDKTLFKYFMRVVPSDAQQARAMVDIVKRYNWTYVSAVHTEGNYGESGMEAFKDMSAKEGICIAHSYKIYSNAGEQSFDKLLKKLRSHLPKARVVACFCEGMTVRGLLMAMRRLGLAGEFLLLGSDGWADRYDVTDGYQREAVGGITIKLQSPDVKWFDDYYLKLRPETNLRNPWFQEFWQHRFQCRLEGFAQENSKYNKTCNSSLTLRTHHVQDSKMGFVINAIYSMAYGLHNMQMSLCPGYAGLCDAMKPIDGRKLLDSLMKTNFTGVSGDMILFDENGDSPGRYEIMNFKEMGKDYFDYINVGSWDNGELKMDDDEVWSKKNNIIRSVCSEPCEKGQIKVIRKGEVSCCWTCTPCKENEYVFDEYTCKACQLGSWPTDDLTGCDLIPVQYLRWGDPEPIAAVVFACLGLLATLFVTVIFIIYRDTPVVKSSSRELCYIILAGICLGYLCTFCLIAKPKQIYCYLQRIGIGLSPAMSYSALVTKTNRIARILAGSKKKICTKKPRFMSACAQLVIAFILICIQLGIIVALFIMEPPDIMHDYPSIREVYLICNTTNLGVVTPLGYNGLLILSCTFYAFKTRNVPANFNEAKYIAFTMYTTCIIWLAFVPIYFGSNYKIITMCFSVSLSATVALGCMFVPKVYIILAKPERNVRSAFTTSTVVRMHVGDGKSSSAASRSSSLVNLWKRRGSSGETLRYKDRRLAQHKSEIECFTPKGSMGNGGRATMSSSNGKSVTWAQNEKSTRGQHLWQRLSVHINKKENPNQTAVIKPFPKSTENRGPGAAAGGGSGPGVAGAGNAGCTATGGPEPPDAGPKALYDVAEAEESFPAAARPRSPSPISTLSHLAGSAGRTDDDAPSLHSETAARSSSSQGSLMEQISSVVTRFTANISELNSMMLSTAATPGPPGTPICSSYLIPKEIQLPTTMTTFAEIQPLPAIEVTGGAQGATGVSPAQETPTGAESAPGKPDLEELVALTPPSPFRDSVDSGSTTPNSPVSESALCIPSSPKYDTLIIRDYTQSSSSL
Description: Two groups of male adult Sprague-Dawley rats weighing 250-300 g are used for the biodistribution studies. The first group (n=3) serves as the control group and the second group (n=3) serves as the blockade group. Each animal received 250-300 pmol (0.6-40 MBq) of 3-(6-methyl-pyridin-2-ylethynyl)-cyclohex-2-enone O-[^11C-methyl]oxime via a lateral tail vein. The blockade group is co-injected with 2-methyl-6-((3-methoxyphenyl)ethynyl)-pyridine (1 mg/kg) whereas the control group (n=3) receives a corresponding volume of 0.9% NaCl. The animals are sacrificed 30 min post-injection. Organ or brain regions such as hippocampus, striatum, cortex and cerebellum are removed and measured in a gamma-counter. The tissue distribution is expressed as percentage of injected dose per gram wet tissue (% ID/g organ).
K1, K2, K3 are individual values for control animals. B1, B2, B3 are individual values for animals co-injected with 2-methyl-6-((3-methoxyphenyl)ethynyl)-pyridine.

[1] = blockade animals B1-B3 co-injected with 2-methyl-6-((3-methoxyphenyl)ethynyl)-pyridine 1 mg/kg
[2] = control animals K1-K3 (0.9% NaCl), i.v. tail vein

| SMILES | Ki (human mGlu5 receptor; calculated using the Cheng-Prusoff equation, radioligand concentration 2 nM) [nM] | Hill coefficient (human mGlu5 receptor; displacement of [3H]-2-methyl-6-((3-methoxyphenyl)ethynyl)-pyridine, L-tk cell membranes, human mGlu5) | IC50 (human mGlu5 receptor; membrane of L-tk cells stably expressing the human mGlu5 receptor, 95% confidence intervals: 6.0-10.0 nM, read-out: IC50 for the displacement of [3H]-2-methyl-6-((3-methoxyphenyl)ethynyl)-pyridine) [nM] | percentage of injected dose per gram wet tissue, Cerebellum (mGlu5 receptors; [1]) | percentage of injected dose per gram wet tissue, Cortex (mGlu5 receptors; [1]) | percentage of injected dose per gram wet tissue, Hippocampus (mGlu5 receptors; [1]) | percentage of injected dose per gram wet tissue, Midbrain (mGlu5 receptors; [1]) | percentage of injected dose per gram wet tissue, Restbrain (mGlu5 receptors; [1]) | percentage of injected dose per gram wet tissue, Striatum (mGlu5 receptors; [1]) | percentage of injected dose per gram wet tissue, Whole brain (mGlu5 receptors; [1]) | percentage of injected dose per gram wet tissue, Cerebellum (mGlu5 receptors; [2]) | percentage of injected dose per gram wet tissue, Cortex (mGlu5 receptors; [2]) | percentage of injected dose per gram wet tissue, Hippocampus (mGlu5 receptors; [2]) | percentage of injected dose per gram wet tissue, Midbrain (mGlu5 receptors; [2]) | percentage of injected dose per gram wet tissue, Restbrain (mGlu5 receptors; [2]) | percentage of injected dose per gram wet tissue, Striatum (mGlu5 receptors; [2]) | percentage of injected dose per gram wet tissue, Whole brain (mGlu5 receptors; [2]) |
| --- | --- | --- | --- | --- | --- | --- | --- | --- | --- | --- | --- | --- | --- | --- | --- | --- | --- |
| CON=C1C=C(C#Cc2cccc(C)n2)CCC1 [3-(6-methyl-pyridin-2-ylethynyl)-cyclohex-2-enone O-methyl-oxime] | 4 | 1.08 | 8 |  |  |  |  |  |  |  |  |  |  |  |  |  |  |
| Cc1cccc(C#CC2=CC(=NO[11CH3])CCC2)n1 [Example 1, 3-(6-Methyl-pyridin-2-ylethynyl)-cyclohex-2-enone O-[^11C-methyl]-oxime] |  |  |  | 0.04052 % ID/g organ and 0.03608 % ID/g organ and 0.03421 % ID/g organ | 0.04964 % ID/g organ and 0.05582 % ID/g organ and 0.05431 % ID/g organ | 0.05184 % ID/g organ and 0.06195 % ID/g organ and 0.05972 % ID/g organ | 0.03876 % ID/g organ and 0.047 % ID/g organ and 0.04422 % ID/g organ | 0.03832 % ID/g organ and 0.04762 % ID/g organ and 0.04383 % ID/g organ | 0.06495 % ID/g organ and 0.07158 % ID/g organ and 0.06487 % ID/g organ | 0.0458 % ID/g organ and 0.05118 % ID/g organ and 0.04951 % ID/g organ | 0.03322 % ID/g organ and 0.03925 % ID/g organ and 0.03699 % ID/g organ | 0.1485 % ID/g organ and 0.1832 % ID/g organ and 0.1691 % ID/g organ | 0.1615 % ID/g organ and 0.2544 % ID/g organ and 0.2126 % ID/g organ | 0.07703 % ID/g organ and 0.1056 % ID/g organ and 0.09091 % ID/g organ | 0.05519 % ID/g organ and 0.0652 % ID/g organ and 0.0607 % ID/g organ | 0.2256 % ID/g organ and 0.3069 % ID/g organ and 0.2816 % ID/g organ | 0.1112 % ID/g organ and 0.1366 % ID/g organ and 0.13 % ID/g organ |
